How the values were obtained:
Test in all cases: radiometric filter-binding kinase assay, Kinase HotSpot
Settings in all cases: compound 0.5 µM; ATP 10 µM
MAP4K2 (human) = MAP4K2 (human) (UniProt Q12851)
RPS6KA2 KD1 KD2 (human) = RPS6KA2 KD1 KD2 (human) (UniProt Q15349)
PRKCA (human) = PRKCA (human) (UniProt P17252)
MAPK3 (human) = MAPK3 (human) (UniProt P27361)
MAPK1 (human) = MAPK1 (human) (UniProt P28482)
EPHB4 (human) = EPHB4 (human) (UniProt P54760)
TXK (human) = TXK (human) (UniProt P42681)
FRK (human) = FRK (human) (UniProt P42685)
PBK (human) = PBK (human) (UniProt Q96KB5)
PAK6 (human) = PAK6 (human) (UniProt Q9NQU5)
TGFBR2 (human) = TGFBR2 (human) (UniProt P37173)
PNCK (human) = PNCK (human) (UniProt Q6P2M8)
MINK1 (human) = MINK1 (human) (UniProt Q8N4C8)
EPHB3 (human) = EPHB3 (human) (UniProt P54753)
PRKCI (human) = PRKCI (human) (UniProt P41743)
MAPK8 (human) = MAPK8 (human) (UniProt P45983)
MLTK (human) = MLTK (human) (UniProt Q9NYL2)
PLK1 (human) = PLK1 (human) (UniProt P53350)
MAP3K9 (human) = MAP3K9 (human) (UniProt P80192)
PDGFRB (human) = PDGFRB (human) (UniProt P09619)
AKT1 (human) = AKT1 (human) (UniProt P31749)
RET (human) = RET (human) (UniProt P07949)
MAP3K10 (human) = MAP3K10 (human) (UniProt Q02779)
FGFR3 (human) = FGFR3 (human) (UniProt P22607)
SYK (human) = SYK (human) (UniProt P43405)
HIPK2 (human) = HIPK2 (human) (UniProt Q9H2X6)
FES (human) = FES (human) (UniProt P07332)
AKT2 (human) = AKT2 (human) (UniProt P31751)
IKBKE (human) = IKBKE (human) (UniProt Q14164)
TSSK2 (human) = TSSK2 (human) (UniProt Q96PF2)
PAK7 (human) = PAK7 (human) (UniProt Q9P286)
EPHA7 (human) = EPHA7 (human) (UniProt Q15375)
CHEK1 (human) = CHEK1 (human) (UniProt O14757)
EPHA3 (human) = EPHA3 (human) (UniProt P29320)
ULK2 (human) = ULK2 (human) (UniProt Q8IYT8)
CSNK1G2 (human) = CSNK1G2 (human) (UniProt P78368)
PIM2 (human) = PIM2 (human) (UniProt Q9P1W9)
HIPK1 (human) = HIPK1 (human) (UniProt Q86Z02)
PIM1 (human) = PIM1 (human) (UniProt P11309)
FLT1 (human) = FLT1 (human) (UniProt P17948)
MAPK9 (human) = MAPK9 (human) (UniProt P45984)
MAP3K5 (human) = MAP3K5 (human) (UniProt Q99683)
Sequence of MAP3K5 (human) (Q99683 whole entry, looked up): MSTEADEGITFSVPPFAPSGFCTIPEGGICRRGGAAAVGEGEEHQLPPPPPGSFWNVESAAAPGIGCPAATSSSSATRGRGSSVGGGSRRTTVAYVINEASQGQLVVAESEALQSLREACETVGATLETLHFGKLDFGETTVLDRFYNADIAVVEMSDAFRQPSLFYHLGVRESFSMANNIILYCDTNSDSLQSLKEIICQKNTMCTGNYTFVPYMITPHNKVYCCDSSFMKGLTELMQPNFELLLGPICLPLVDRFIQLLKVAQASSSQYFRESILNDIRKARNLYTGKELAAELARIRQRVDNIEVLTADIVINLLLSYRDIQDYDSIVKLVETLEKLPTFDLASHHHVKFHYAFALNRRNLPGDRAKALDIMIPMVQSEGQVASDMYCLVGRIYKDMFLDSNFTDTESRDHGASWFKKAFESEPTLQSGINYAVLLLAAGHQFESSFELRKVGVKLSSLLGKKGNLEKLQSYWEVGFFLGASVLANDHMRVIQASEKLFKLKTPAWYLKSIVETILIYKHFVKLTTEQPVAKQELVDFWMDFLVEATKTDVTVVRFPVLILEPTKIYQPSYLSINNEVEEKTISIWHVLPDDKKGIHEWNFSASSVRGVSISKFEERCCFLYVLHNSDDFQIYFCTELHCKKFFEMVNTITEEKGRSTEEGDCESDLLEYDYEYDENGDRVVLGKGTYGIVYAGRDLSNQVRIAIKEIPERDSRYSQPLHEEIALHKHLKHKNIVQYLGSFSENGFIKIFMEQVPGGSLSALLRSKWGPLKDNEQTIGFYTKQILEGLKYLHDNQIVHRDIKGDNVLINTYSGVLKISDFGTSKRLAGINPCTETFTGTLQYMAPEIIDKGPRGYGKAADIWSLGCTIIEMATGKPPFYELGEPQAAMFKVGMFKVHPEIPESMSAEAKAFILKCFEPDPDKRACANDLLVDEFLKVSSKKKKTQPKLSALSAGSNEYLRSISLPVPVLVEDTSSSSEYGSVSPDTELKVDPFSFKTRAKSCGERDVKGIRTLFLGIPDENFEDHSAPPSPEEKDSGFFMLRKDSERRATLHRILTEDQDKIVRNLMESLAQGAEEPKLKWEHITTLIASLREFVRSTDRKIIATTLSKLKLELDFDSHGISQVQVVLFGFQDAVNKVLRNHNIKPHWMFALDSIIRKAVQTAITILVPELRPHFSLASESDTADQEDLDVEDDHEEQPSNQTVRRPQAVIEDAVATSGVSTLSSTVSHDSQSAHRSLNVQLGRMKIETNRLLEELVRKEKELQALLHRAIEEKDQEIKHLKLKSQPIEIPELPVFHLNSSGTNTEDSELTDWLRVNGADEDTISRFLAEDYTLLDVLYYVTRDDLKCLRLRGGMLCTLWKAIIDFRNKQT

Sequence of PAK7 (human) (Q9P286 whole entry, looked up): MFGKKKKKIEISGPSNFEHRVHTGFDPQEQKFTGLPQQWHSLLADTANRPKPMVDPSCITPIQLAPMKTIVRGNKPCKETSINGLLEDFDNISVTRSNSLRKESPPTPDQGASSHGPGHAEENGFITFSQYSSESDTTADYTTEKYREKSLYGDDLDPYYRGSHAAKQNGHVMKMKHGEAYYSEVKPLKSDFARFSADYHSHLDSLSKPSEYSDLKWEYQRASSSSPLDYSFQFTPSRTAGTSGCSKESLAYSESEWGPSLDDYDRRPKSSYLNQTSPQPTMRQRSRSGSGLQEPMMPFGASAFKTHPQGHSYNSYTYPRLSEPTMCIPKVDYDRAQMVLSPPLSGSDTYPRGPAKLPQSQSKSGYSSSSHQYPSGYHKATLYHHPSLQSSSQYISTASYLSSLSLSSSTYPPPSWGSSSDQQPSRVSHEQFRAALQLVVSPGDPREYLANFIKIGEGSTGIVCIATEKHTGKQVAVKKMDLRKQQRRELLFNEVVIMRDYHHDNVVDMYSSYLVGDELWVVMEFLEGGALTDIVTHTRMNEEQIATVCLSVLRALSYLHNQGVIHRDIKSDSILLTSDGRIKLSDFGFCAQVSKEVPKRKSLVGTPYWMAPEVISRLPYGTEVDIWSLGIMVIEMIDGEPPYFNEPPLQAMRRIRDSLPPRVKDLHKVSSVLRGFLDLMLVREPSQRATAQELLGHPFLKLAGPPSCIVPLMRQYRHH
Sequence of MAPK1 (human) (P28482 whole entry, looked up): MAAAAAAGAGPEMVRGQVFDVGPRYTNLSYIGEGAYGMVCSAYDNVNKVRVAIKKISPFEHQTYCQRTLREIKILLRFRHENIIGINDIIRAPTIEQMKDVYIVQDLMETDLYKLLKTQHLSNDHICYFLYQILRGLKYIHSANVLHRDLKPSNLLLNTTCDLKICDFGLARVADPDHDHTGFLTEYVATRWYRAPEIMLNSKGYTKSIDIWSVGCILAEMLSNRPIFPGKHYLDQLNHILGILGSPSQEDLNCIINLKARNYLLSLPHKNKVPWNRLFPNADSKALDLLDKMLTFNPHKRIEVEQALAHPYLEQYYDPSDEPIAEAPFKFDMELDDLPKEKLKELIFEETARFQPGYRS
Sequence of FES (human) (P07332 whole entry, looked up): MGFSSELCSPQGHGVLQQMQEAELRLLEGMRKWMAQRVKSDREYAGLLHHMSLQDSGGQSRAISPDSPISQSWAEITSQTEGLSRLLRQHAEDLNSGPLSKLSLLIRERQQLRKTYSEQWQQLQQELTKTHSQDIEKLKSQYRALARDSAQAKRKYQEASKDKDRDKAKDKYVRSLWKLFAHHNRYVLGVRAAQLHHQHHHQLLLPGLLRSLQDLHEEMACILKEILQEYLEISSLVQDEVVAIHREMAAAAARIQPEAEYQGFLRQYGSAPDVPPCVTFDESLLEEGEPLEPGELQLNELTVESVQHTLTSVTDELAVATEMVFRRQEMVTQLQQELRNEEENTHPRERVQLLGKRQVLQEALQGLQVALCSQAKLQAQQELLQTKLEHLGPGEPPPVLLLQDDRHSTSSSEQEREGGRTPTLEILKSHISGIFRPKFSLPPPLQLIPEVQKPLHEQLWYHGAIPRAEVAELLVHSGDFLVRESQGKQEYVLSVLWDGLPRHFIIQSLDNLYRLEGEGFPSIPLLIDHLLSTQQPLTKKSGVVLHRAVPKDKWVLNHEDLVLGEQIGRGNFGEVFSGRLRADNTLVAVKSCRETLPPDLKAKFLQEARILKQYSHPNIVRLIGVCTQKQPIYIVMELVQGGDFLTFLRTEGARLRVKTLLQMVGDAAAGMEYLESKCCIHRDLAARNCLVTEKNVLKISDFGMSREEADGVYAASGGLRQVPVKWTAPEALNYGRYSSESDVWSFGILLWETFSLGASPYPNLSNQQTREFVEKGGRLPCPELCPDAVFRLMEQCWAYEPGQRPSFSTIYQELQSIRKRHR
Sequence of MAPK9 (human) (P45984 whole entry, looked up): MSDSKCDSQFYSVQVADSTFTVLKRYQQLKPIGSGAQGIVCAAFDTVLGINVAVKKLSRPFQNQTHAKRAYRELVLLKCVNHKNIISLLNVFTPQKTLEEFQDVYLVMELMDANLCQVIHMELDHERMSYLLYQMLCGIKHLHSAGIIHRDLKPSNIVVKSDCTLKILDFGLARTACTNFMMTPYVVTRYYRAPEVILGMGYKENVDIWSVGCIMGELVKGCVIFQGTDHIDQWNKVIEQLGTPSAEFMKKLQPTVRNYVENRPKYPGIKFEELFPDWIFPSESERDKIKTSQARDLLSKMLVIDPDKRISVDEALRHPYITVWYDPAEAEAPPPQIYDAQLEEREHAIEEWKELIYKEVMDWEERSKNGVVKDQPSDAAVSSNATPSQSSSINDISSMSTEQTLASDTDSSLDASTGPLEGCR
Sequence of MAPK3 (human) (P27361 whole entry, looked up): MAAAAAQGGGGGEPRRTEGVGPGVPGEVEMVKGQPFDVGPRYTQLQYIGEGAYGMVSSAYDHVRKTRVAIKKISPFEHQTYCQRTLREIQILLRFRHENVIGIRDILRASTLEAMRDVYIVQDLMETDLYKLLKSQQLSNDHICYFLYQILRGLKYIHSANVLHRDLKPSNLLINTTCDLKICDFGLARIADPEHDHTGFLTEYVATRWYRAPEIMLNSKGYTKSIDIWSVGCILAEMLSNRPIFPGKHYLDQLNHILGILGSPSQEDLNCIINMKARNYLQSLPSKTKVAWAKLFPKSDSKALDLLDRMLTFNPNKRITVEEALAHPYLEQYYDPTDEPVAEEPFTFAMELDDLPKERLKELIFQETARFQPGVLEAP
Sequence of AKT2 (human) (P31751 whole entry, looked up): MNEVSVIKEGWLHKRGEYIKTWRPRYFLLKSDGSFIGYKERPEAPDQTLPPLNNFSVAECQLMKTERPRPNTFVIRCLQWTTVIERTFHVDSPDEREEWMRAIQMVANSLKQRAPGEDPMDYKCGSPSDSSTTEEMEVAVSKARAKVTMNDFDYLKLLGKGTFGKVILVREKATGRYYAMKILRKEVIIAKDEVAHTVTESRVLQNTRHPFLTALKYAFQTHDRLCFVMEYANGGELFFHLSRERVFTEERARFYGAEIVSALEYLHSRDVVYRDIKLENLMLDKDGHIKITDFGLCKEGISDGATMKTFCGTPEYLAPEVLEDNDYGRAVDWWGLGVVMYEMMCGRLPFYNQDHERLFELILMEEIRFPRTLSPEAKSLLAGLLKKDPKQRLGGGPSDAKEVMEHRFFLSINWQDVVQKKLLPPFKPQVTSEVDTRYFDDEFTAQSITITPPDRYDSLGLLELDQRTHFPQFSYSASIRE
Sequence of AKT1 (human) (P31749 whole entry, looked up): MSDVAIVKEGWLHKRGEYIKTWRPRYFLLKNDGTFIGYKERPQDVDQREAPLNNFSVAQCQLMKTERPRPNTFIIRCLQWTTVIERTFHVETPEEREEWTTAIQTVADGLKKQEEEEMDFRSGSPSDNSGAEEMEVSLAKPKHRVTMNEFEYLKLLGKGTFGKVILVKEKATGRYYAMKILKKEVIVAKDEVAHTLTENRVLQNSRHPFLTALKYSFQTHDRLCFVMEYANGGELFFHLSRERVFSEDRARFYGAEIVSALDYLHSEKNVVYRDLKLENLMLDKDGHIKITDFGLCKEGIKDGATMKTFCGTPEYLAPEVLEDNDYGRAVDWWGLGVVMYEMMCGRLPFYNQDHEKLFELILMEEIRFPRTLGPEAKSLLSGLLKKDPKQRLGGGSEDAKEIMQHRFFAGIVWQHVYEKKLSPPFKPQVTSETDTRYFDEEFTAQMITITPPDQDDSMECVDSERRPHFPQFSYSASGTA

SMILES: O=C1C(Cl)=C(N2C(=O)CCC2=O)C(=O)c2ccccc21
- residual activity (MAP4K2 (human)): 89.6%
- residual activity (RPS6KA2 KD1 KD2 (human)): 104%
- residual activity (PRKCA (human)): 99.1%
- residual activity (MAPK3 (human)): 99.3%
- residual activity (MAPK1 (human)): 73.6%
- residual activity (EPHB4 (human)): 98.7%
- residual activity (TXK (human)): 95.5%
- residual activity (FRK (human)): 103%
- residual activity (PBK (human)): 106%
- residual activity (PAK6 (human)): 89.6%
- residual activity (TGFBR2 (human)): 130%
- residual activity (PNCK (human)): 100%
- residual activity (MINK1 (human)): 95.6%
- residual activity (EPHB3 (human)): 97%
- residual activity (PRKCI (human)): 96.6%
- residual activity (MAPK8 (human)): 122%
- residual activity (MLTK (human)): 97.9%
- residual activity (PLK1 (human)): 97.6%
- residual activity (MAP3K9 (human)): 106%
- residual activity (PDGFRB (human)): 103%
- residual activity (AKT1 (human)): 103%
- residual activity (RET (human)): 98%
- residual activity (MAP3K10 (human)): 92.8%
- residual activity (FGFR3 (human)): 106%
- residual activity (SYK (human)): 95.9%
- residual activity (HIPK2 (human)): 104%
- residual activity (FES (human)): 97.5%
- residual activity (AKT2 (human)): 96.3%
- residual activity (IKBKE (human)): 99.6%
- residual activity (TSSK2 (human)): 103%
- residual activity (PAK7 (human)): 108%
- residual activity (EPHA7 (human)): 106%
- residual activity (CHEK1 (human)): 111%
- residual activity (EPHA3 (human)): 105%
- residual activity (ULK2 (human)): 108%
- residual activity (CSNK1G2 (human)): 99.3%
- residual activity (PIM2 (human)): 123%
- residual activity (HIPK1 (human)): 104%
- residual activity (PIM1 (human)): 100%
- residual activity (FLT1 (human)): 87.8%
- residual activity (MAPK9 (human)): 93.6%
- residual activity (MAP3K5 (human)): 99.1%

SMILES: Cc1cncc2cccc(S(=O)(=O)N3CCCN(C(=O)CN)C[C@H]3C)c12
- residual activity (MAP4K2 (human)): 106%
- residual activity (RPS6KA2 KD1 KD2 (human)): 89.2%
- residual activity (PRKCA (human)): 109%
- residual activity (MAPK3 (human)): 103%
- residual activity (MAPK1 (human)): 103%
- residual activity (EPHB4 (human)): 85.1%
- residual activity (TXK (human)): 103%
- residual activity (FRK (human)): 114%
- residual activity (PBK (human)): 98.6%
- residual activity (PAK6 (human)): 108%
- residual activity (TGFBR2 (human)): 132%
- residual activity (PNCK (human)): 101%
- residual activity (MINK1 (human)): 97.2%
- residual activity (EPHB3 (human)): 99.6%
- residual activity (PRKCI (human)): 87.4%
- residual activity (MAPK8 (human)): 98.8%
- residual activity (MLTK (human)): 108%
- residual activity (PLK1 (human)): 101%
- residual activity (MAP3K9 (human)): 94.4%
- residual activity (PDGFRB (human)): 104%
- residual activity (AKT1 (human)): 104%
- residual activity (RET (human)): 94.4%
- residual activity (MAP3K10 (human)): 105%
- residual activity (FGFR3 (human)): 97.7%
- residual activity (SYK (human)): 100%
- residual activity (HIPK2 (human)): 90.2%
- residual activity (FES (human)): 102%
- residual activity (AKT2 (human)): 97.2%
- residual activity (IKBKE (human)): 95%
- residual activity (TSSK2 (human)): 99.6%
- residual activity (PAK7 (human)): 101%
- residual activity (EPHA7 (human)): 90.7%
- residual activity (CHEK1 (human)): 100%
- residual activity (EPHA3 (human)): 98.7%
- residual activity (ULK2 (human)): 98.8%
- residual activity (CSNK1G2 (human)): 95.1%
- residual activity (PIM2 (human)): 104%
- residual activity (HIPK1 (human)): 99.1%
- residual activity (PIM1 (human)): 105%
- residual activity (FLT1 (human)): 96.9%
- residual activity (MAPK9 (human)): 106%
- residual activity (MAP3K5 (human)): 106%

Reference: the kinase profiling compilation of Christmann-Franck et al. (2016)
